# Reference: the supplement of paper PMC11061612
# Key:
# Assay in all cases: combination Emax (second highest fraction inhibited in the dose matrix, 72 h); higher = more inhibition; extreme values may be limits of the assay
# [1] = tested on: BICR78 (Oral Cavity Carcinoma)
# How it was run: (§1)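 Cell lines grown in DMEM/F12 or RPMI with 10% FBS were plated in 1536-well plates and held 24 hours at 37°C, 5% CO2 before 72 hours of exposure to two-drug dose matrices, with DMSO typically at 0.2%. CellTiter-Glo 2.0 luminescence gave viability, which was converted to inhibition. Vehicle wells were set to 0 and blank wells to 1. Combination Emax is the second-highest inhibition in the matrix, and Bliss excess is the observed combination effect minus the expected EA + EB − EA·EB, where EA and EB are the single-agent effects.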
# [2] = tested on: EFM-192A (Breast Carcinoma)
# How it was run: as §1
# [3] = tested on: PA-TU-8902 (Pancreatic Carcinoma)
# How it was run: as §1
# [4] = tested on: RCC10RGB (Kidney Carcinoma)
# How it was run: as §1
# [5] = tested on: YT (Other Blood Carcinomas)
# How it was run: as §1
# [6] = tested on: HCT-116 (Colorectal Carcinoma)
# How it was run: as §1
# [7] = tested on: SKN-3 (Head and Neck Carcinoma)
# How it was run: as §1
# [8] = tested on: NCI-H1688 (Small Cell Lung Carcinoma)
# How it was run: as §1
# [9] = tested on: SNU-61 (Colorectal Carcinoma)
# How it was run: as §1
# [10] = tested on: HLE (Hepatocellular Carcinoma)
# How it was run: as §1
# [11] = tested on: NOMO-1 (Acute Myeloid Leukemia)
# How it was run: as §1
# [12] = tested on: CAL-39 (Other Solid Carcinomas)
# How it was run: as §1
# [13] = tested on: KG-1 (Acute Myeloid Leukemia)
# How it was run: as §1
# Saos-2 (Osteosarcoma) = tested on: Saos-2 (Osteosarcoma)
# How it was run: as §1
# D-392MG (Glioblastoma) = tested on: D-392MG (Glioblastoma)
# How it was run: as §1
# [14] = tested on: P31-FUJ (Acute Myeloid Leukemia)
# How it was run: as §1
# [15] = tested on: GDM-1 (Acute Myeloid Leukemia)
# How it was run: as §1
# HuO9 (Osteosarcoma) = tested on: HuO9 (Osteosarcoma)
# How it was run: as §1
# [16] = tested on: HOP-92 (Non-Small Cell Lung Carcinoma)
# How it was run: as §1
# [17] = tested on: U-118-MG (Low Grade Glioma)
# How it was run: as §1
Structure (SMILES),combination Emax [1],combination Emax [2],combination Emax [3],combination Emax [4],combination Emax [5],combination Emax [6],combination Emax [7],combination Emax [8],combination Emax [9],combination Emax [10],combination Emax [11],combination Emax [12],combination Emax [13],combination Emax (Saos-2 (Osteosarcoma)),combination Emax (D-392MG (Glioblastoma)),combination Emax [14],combination Emax [15],combination Emax (HuO9 (Osteosarcoma)),combination Emax [16],combination Emax [17]
"C=CCn1c(=O)c2cnc(Nc3ccc(N4CCN(C)CC4)cc3)nc2n1-c1cccc(C(C)(C)O)n1 [AZD1775] + O=C(c1cc(Cc2n[nH]c(=O)c3ccccc23)ccc1F)N1CCN(C(=O)C2CC2)CC1 [Olaparib] (first compound max 1 µM, partner max 10 µM)",0.362,0.293,0.289,0.52,0.902,0.635,0.171,0.6,0.302,0.823,0.917,0.402,0.412,0.613,0.235,0.868,0.827,0.792,0.596,
"CCN(CCO)CCCOc1ccc2c(Nc3cc(CC(=O)Nc4cccc(F)c4)[nH]n3)ncnc2c1 [AZD2811] + C=CCn1c(=O)c2cnc(Nc3ccc(N4CCN(C)CC4)cc3)nc2n1-c1cccc(C(C)(C)O)n1 [AZD1775] (first compound max 1 µM, partner max 1 µM)",0.264,0.239,0.222,0.518,0.888,0.547,0.148,0.568,0.212,0.935,0.932,0.415,0.436,0.704,0.168,0.917,0.857,0.686,0.646,0.333
"CCN(CCO)CCCOc1ccc2c(Nc3cc(CC(=O)Nc4cccc(F)c4)[nH]n3)ncnc2c1 [AZD2811] + C[C@@H]1COCCN1C2=NC(=NC(=C2)C3(CC3)[S@](=N)(=O)C)C4=C5C=CNC5=NC=C4 [AZD6738] (first compound max 1 µM, 7x7, partner max 10 µM)",0.637,0.233,0.216,0.384,0.76,0.562,0.222,0.271,0.297,0.76,0.922,0.467,0.699,0.588,0.392,0.942,0.823,0.815,0.626,0.52
"Cc1c2c(nn1C)CSCc1cc(n(C)n1)CSc1cc(c3ccccc3c1)OCCCc1c(C(=O)O)n(C)c3c-2c(Cl)ccc13 [AZD5991] + C[C@@H](Nc1cc(F)cc(F)c1)c1cc(C(=O)N(C)C)cc2c(=O)cc(N3CCOCC3)oc12 [AZD8186] (first compound max 1 µM, 7x7, partner max 3 µM)",0.189,0.703,0.173,0.557,1,0.248,0.31,0.339,0.168,,0.905,0.704,1,0.491,0.301,0.959,0.767,1,0.587,0.45
"CS(=O)(=O)CCNCc1ccc(-c2ccc3ncnc(Nc4ccc(OCc5cccc(F)c5)c(Cl)c4)c3c2)o1 [Lapatinib] + Cn1cnc2c(F)c(Nc3ccc(Br)cc3Cl)c(C(=O)NOCCO)cc21 [Selumetinib] (first compound max 10 µM, 7x7, partner max 10 µM)",0.547,,,,0.725,0.775,,,,0.234,0.661,1,,0.289,0.396,0.521,,,,
"CS(=O)(=O)CCNCc1ccc(-c2ccc3ncnc(Nc4ccc(OCc5cccc(F)c5)c(Cl)c4)c3c2)o1 [Lapatinib] + NC1(c2ccc(-c3nc4ccn5c(=O)[nH]nc5c4cc3-c3ccccc3)cc2)CCC1 [MK-2206] (first compound max 10 µM, 7x7, partner max 10 µM)",0.545,,0.72,,0.945,0.891,0.835,0.819,,0.597,0.778,0.999,,0.426,0.189,0.947,,0.995,0.685,
"CCc1c2c(nc3ccc(O)cc13)-c1cc3c(c(=O)n1C2)COC(=O)[C@]3(O)CC [SN-38] + O=C(c1cc(Cc2n[nH]c(=O)c3ccccc23)ccc1F)N1CCN(C(=O)C2CC2)CC1 [Olaparib] (first compound max 0.3 µM, 7x7, partner max 10 µM)",0.786,,0.428,,0.895,0.9,,0.534,,0.945,0.968,0.979,,0.96,0.435,0.987,,0.996,,
"Cc1nc(-c2cn3c(n2)-c2ccc(-c4cnn(C(C)(C)C(N)=O)c4)cc2OCC3)n(C(C)C)n1 [Taselisib] + O=C(Nc1ccc2[nH]nc(-c3ccncc3)c2c1)[C@@H]1CCN(CC(=O)N2CCN(c3ccc(-c4ncccn4)cc3)CC2)C1 [SCH772984] (first compound max 10 µM, 7x7, partner max 5 µM)",0.66,,,,0.597,1,,,,0.33,0.932,1,,0.703,0.799,0.948,,,,
